Source: PubChem BioAssay AID1645848
Values after ≈ are worked out from the molar mass of the structure shown.

Conditions: buffer; pH 7.4; 6.0 h; 150.0 µM

Row | Structure (SMILES) | solubility kinetic
1 | Cc1ccc(S(=O)(=O)Nc2cnccc2C(=O)Nc2nc(-c3cnn(C)c3)cs2)cc1 | 25.4 µg/mL (≈ 55.8 µM)
2 | CC[C@H]1/C=C\C=C/C[C@@H](C)[C@H](O)[C@@](C)(O)C(=O)[C@@H](C)[C@H](O)[C@@H](C)C(=O)[C@@H](C)[C@H](O)[C@@H](C)/C=C\C(=O)O[C@@H]2[C@H](C)[C@H](CC1)O[C@]1(CC[C@H](C)[C@H](C[C@@H](C)O)O1)[C@H]2C | < 1 µg/mL
3 | COc1cccc(CC(=O)Nc2nc(-c3ccc4c(c3)CCN4C(=O)c3ccccc3C)c(C)s2)c1 | < 1 µg/mL
4 | C[C@H]1CCC[C@H](O)CCC/C=C/c2cc(O)cc(O)c2C(=O)O1 | 17.1 µg/mL (≈ 53.2 µM)
5 | COC(=O)c1cc2occc2n1Cc1nc(-c2ccc(C)cc2)oc1C | < 1 µg/mL
6 | Cc1ccc(S(=O)(=O)Nc2cnccc2C(=O)Nc2cccc3ccccc23)cc1 | 46.4 µg/mL (≈ 111 µM)
7 | COc1ccc2[nH]c(C[C@@H]3C[C@@H](C(C)C)[C@H](CNCc4ccccc4O)C=C3C)nc2n1 | 42.1 µg/mL (≈ 96.9 µM)
8 | CCCCOc1ccc(C(=O)N2CCC(c3n[nH]c(=O)n3-c3ccc(C)cc3)CC2)cc1 | < 1 µg/mL
9 | COc1ccc(C)cc1Nc1c2c(nc3ccccc13)CCC2 | > 45 µg/mL
10 | CC(C)(O)CCc1ccc(OCc2cc(-c3cccc(OC(F)F)c3)c3ncccc3c2)cc1 | < 1 µg/mL
11 | COc1cccc(CNc2ccc(S(=O)(=O)Nc3cc(C)on3)cc2)c1O | > 58 µg/mL
12 | O=C(c1cnc(N2CCCCC2)c2ccccc12)N1CCN(c2ccc(Cl)cc2)CC1 | < 1 µg/mL
13 | Cc1ccc(CSCc2ccc(C(=O)NC3CC3)o2)cc1 | > 44 µg/mL
14 | O=C(Nc1ncc(Cc2ccc(C(F)(F)F)cc2)s1)c1ccc(-c2ccc([N+](=O)[O-])cc2)o1 | < 1 µg/mL
15 | CCN(CC)CCCNC(=O)c1oc2c(c1C)-c1nn(Cc3ccc(Cl)cc3)cc1CC2 | > 67 µg/mL
16 | CC(C)c1ccc(OCc2nc3c(n2Cc2ccccc2)C(=O)N(CC2CC2)CCN3)cc1 | < 1 µg/mL
17 | Cc1onc(-c2ccccc2)c1C(=O)Nc1nnc(COc2ccc(Cl)cc2)s1 | < 1 µg/mL
18 | O=C(Nc1nc(-c2ccccc2)cs1)c1ccncc1NS(=O)(=O)c1ccccc1Cl | 20 µg/mL (≈ 42.4 µM)
19 | Cc1ccc(S(=O)(=O)Nc2cc(C(=O)Nc3nc(-c4ccccc4)cs3)ccn2)cc1 | < 1 µg/mL
20 | O=C1c2ccccc2C2=Nc3ccccc3SC(c3ccccc3F)C12 (stereo not given) | < 1 µg/mL
21 | O=C(CNC12CC3CC(CC(C3)C1)C2)c1ccc(Cl)cc1 | 34.6 µg/mL (≈ 114 µM)
22 | Cc1cc(SCc2sc(-c3ccc(C(F)(F)F)c(F)c3)nc2C)ccc1OCC(=O)O | > 70 µg/mL
23 | COc1ccc(-c2nc3ccccc3c(=O)n2Cc2ccccc2)cc1COc1ccc(NC(C)=O)cc1 | < 1 µg/mL
24 | CN1CC(CNC(=O)OCc2ccccc2)C[C@H]2c3cccc4c3c(cn4C)CC21 (stereo not given in full) | 38.4 µg/mL (≈ 95.2 µM)

Row | Structure (SMILES) | solubility kinetic
25 | COc1ccc(CCNC(=O)Cn2c(=O)c3cccn3c3ccc(F)cc32)cc1OC | 6.63 µg/mL (≈ 15.7 µM)
26 | CCN1CCN(C(=O)CCCn2nc(C)c3c(C)n(-c4ccc(C)cc4)nc3c2=O)CC1 | > 43 µg/mL
27 | COc1ccc(C2CC(=O)Nc3nc(N)sc32)cc1OC (stereo not given) | 30.5 µg/mL (≈ 99.8 µM)
28 | Fc1ccc(Nc2nc(-c3ccnc4ccccc34)nc3ccccc23)cc1F | < 1 µg/mL
29 | COC(=O)c1ccnc(-c2cc(C(=O)NCCc3ccccc3)ccn2)c1 | 5.36 µg/mL (≈ 14.8 µM)
30 | CC(C)(C)OC(=O)N[C@@H](Cc1ccc(O[S+](=O)([O-])c2cccc3cnccc23)cc1)C(=O)N1CCN(Cc2ccccc2)CC1 | < 1 µg/mL
31 | O=C(O)c1ccnc2cc(C(OCCN3CCCCC3)c3ccccc3Cl)[nH]c12 (stereo not given) | > 61 µg/mL
32 | COc1cnccc1-c1nc(Nc2ccc(F)c(F)c2)c2ccccc2n1 | > 54 µg/mL
33 | COc1cccc(CNc2ccc(S(=O)(=O)Nc3ccccc3)cc2)c1O | < 1 µg/mL
34 | Cc1cccc(C(=O)Nc2ccc(N3CCC(N4CCCCC4)CC3)c(C(=O)O)c2)c1 | > 62 µg/mL
35 | Cc1ccnc(NC(=S)N2CCC(c3cccc(C(F)(F)F)c3)CC2)c1 | 7.75 µg/mL (≈ 20.4 µM)
36 | Cc1ccc(S(=O)(=O)Nc2cnccc2C(=O)Nc2nc(-c3nc4ccccc4s3)cs2)cc1 | 2.11 µg/mL (≈ 4.15 µM)
37 | O=S(=O)(Nc1nc2n(n1)C(c1ccccc1)C=C(c1ccc(Cl)cc1)N2)c1ccccc1 (stereo not given) | 1.09 µg/mL (≈ 2.36 µM)
38 | COc1ccccc1Nc1ccnc(N2CCN(C(=O)c3ccc(C)cc3)CC2)n1 | 2.64 µg/mL (≈ 6.54 µM)
39 | CC(=O)N1CCN(c2nc(-c3ccc(Br)cc3)cs2)CC1 | < 1 µg/mL
40 | COc1cc(/C=C2\C(=O)Nc3ccccc32)ccc1O | 15 µg/mL (≈ 56 µM)
41 | COc1cc(-c2csc(N3CCC(C(N)=O)CC3)n2)cc(OC)c1OC | > 56 µg/mL
42 | COc1ccc(NC(C)=O)cc1S(=O)(=O)Nc1ccc(Br)cc1 | 32.7 µg/mL (≈ 81.9 µM)
43 | Nc1ncc(S(=O)(=O)N2CCN(c3ccccc3)CC2)cn1 | 1.13 µg/mL (≈ 3.53 µM)
44 | CCOC(=O)N1CCN(Cc2nc3cc(NC(=O)c4ccc(OC)cc4)ccc3n2C(C)C)CC1 | 14.7 µg/mL (≈ 30.7 µM)
45 | CCN(CC)[S+](=O)([O-])c1cc(NC(=O)c2[nH]c(C)c(C(C)=O)c2C)ccc1OC | 18.1 µg/mL (≈ 43 µM)
46 | CN1C(=O)C(=O)N2C(=C[C@]3(c4c[nH]c5ccccc45)c4ccccc4N[C@H]23)C1=O | < 1 µg/mL
47 | Cn1cncc1[C@@](N)(c1ccc(Cl)cc1)c1ccc2c(c1)c(-c1cccc(Cl)c1)cc(=O)n2C | < 1 µg/mL
48 | COc1ccc(OC)c(-n2c3c(cc(-c4nc(-c5ccc(Cl)cc5)cs4)c2=O)C(=O)CC(C)(C)C3)c1 | < 1 µg/mL

Row | Structure (SMILES) | solubility kinetic
49 | COc1cc2ncnc(Oc3cccc(NC(=O)Nc4cc(C(C)(C)C(F)(F)F)on4)c3)c2cc1OC | 8.62 µg/mL (≈ 16.7 µM)
50 | CC(=O)c1c(C)[nH]c(C(=O)Nc2cccc(S(=O)(=O)N3CCCCC3)c2)c1C | 4.57 µg/mL (≈ 11.3 µM)
51 | CC(C)Oc1cccc(-c2ccnc(N3CCC(C(N)=O)CC3)n2)c1 | 8.28 µg/mL (≈ 24.3 µM)
52 | Cc1cc(NS(=O)(=O)c2ccc(NCCc3ccc(Cl)c(Cl)c3)cc2)no1 | 11.4 µg/mL (≈ 26.9 µM)
53 | COC(=O)c1ccc2nc(NC3=NC(c4[nH]ncc4Cl)C4=C(CCCC4=O)N3)oc2c1 (stereo not given) | 1.62 µg/mL (≈ 3.69 µM)
54 | CCCN(CCC)CCc1cccc2c1CC(=O)N2 | 23.2 µg/mL (≈ 88.9 µM)
55 | CCc1ccc(-n2nc(C)c3c2NC(=O)CSC3c2ccccc2C)cc1 (stereo not given) | 1.11 µg/mL (≈ 2.95 µM)
56 | Cc1ccccc1S(=O)(=O)N1CCCC(CCC(=O)NCCN(C)C2CCCCC2)C1 (stereo not given) | 11.7 µg/mL (≈ 26 µM)
57 | CC(C)(O)CNc1nc(Nc2ccnc(C(F)(F)F)c2)nc(-c2cccc(C(F)(F)F)n2)n1 | 11 µg/mL (≈ 23.2 µM)
58 | CC1(C)CNc2cc(NC(=O)c3cccnc3NCc3ccncc3)ccc21 | 41.8 µg/mL (≈ 112 µM)
59 | CCc1ccc(S(=O)(=O)Nc2cnccc2C(=O)Nc2nc(-c3ccccc3)cs2)cc1 | < 1 µg/mL
60 | O=C1CCCC2=C1C(c1ccncc1Br)N=C(Nc1nc3ccccc3o1)N2 (stereo not given) | < 1 µg/mL
61 | COc1ccnc(NC(=S)N2CCN(c3ccc(Cl)c(Cl)c3)CC2)c1 | 3.16 µg/mL (≈ 7.96 µM)
62 | Fc1cccc(-c2ccc(Nc3nc(-c4ccncc4)nc4ccccc34)cc2F)c1 | < 1 µg/mL
63 | CNc1oc(-c2cccc3ccccc23)nc1C(=O)Nc1cccc(C#N)c1 | < 1 µg/mL
64 | CCOC(=O)c1csc(NC(=O)c2ccncc2NS(=O)(=O)c2ccc(C)cc2)n1 | 3.2 µg/mL (≈ 7.16 µM)
65 | O=C(Nc1ccccc1-c1cn2c(CN3CCNCC3)csc2n1)c1cnc2ccccc2n1 | 4.56 µg/mL (≈ 9.71 µM)
66 | O=C(NCc1cccc(C(F)(F)F)c1)c1ccc(CN2CCCCC2)cc1 | 46.6 µg/mL (≈ 124 µM)
67 | Fc1ccc(Nc2nc(Nc3ccncc3)nc3ccccc23)cc1F | 2.19 µg/mL (≈ 6.25 µM)
68 | COc1ccc(C2(C(=O)N3CCC(n4cc(-c5nc(C)no5)nn4)CC3)CC2)cc1 | > 60 µg/mL
69 | CCOc1ccccc1C(=O)Nc1cccnc1C(=O)Nc1cccc(S(=O)(=O)C(F)(F)F)c1 | < 1 µg/mL
70 | COc1ccc(C(=O)c2sc(Nc3cccc(Cl)c3)nc2N)cc1 | < 1 µg/mL
71 | Cc1ccc(C(=O)NC2CCN(c3cnn(CC4CC4)c(=O)c3)CC2)cc1C | < 1 µg/mL
72 | Cc1ccc(-c2cc(C(=O)NCc3cnn(C)c3)c3cc(Br)ccc3n2)cc1 | < 1 µg/mL

Row | Structure (SMILES) | solubility kinetic
73 | O=C1Nc2ccccc2/C1=C\c1cc(Br)c(O)c(Br)c1 | > 58 µg/mL
74 | COc1ccc(CN(C2CCCCC2C)S(=O)(=O)c2ccc(S(=O)(=O)N(C)C)cc2)cc1OC (stereo not given) | < 1 µg/mL
75 | O=C(NC1CCCc2c1cnn2-c1cccc(O)c1)c1ccccn1 (stereo not given) | 40 µg/mL (≈ 120 µM)
76 | Cc1ccc(-n2ncc(C(=O)NCCN3CCC(Cc4ccccc4)CC3)c2C2CCN(C(=O)OC(C)(C)C)CC2)cc1 | 23.2 µg/mL (≈ 39.6 µM)
77 | CCN(CCO)CCCOc1ccc2c(Nc3cc(CC(=O)Nc4cccc(F)c4)[nH]n3)ncnc2c1 | > 75 µg/mL
78 | Cc1nn2c(c1-c1ccccc1-c1ccccc1)N(Cc1ccc(C(=O)O)s1)CCC2 | > 63 µg/mL
79 | CC(=O)c1c(C)[nH]c(C(=O)Nc2cccc([S+](=O)([O-])Nc3ccccc3C)c2)c1C | < 1 µg/mL
80 | Cc1cccc(-n2cnc3cc(C(=O)N4CCCC(C)C4)ccc32)c1 (stereo not given) | 26.4 µg/mL (≈ 79.3 µM)
81 | CC(C)CNc1ccnc(NCc2csc(-c3ccccc3)n2)n1 | 35.9 µg/mL (≈ 106 µM)
82 | NC(=O)C1CCN(c2nc(-c3ccc(C(F)(F)F)cc3)cs2)CC1 | 1.98 µg/mL (≈ 5.56 µM)
83 | CC[C@@H](C)Nc1cc(C(=O)NC2CC3CCC(C2)N3c2ccc(C(=O)C3CC3)cn2)c(C)cc1C(N)=O (stereo not given in full) | < 1 µg/mL
84 | Cc1sc(NC(=O)Cc2ccc3c(c2)OCO3)nc1-c1ccc2c(c1)CCN2C(=O)c1ccccc1 | < 1 µg/mL
85 | CN(C)[C@@H]1CCN(c2cccc(Nc3nn4c(=O)c5ccccc5nc4s3)c2)C1 | 18.1 µg/mL (≈ 44.4 µM)
86 | CC1=C(C(=O)Nc2nncs2)C2(CCCC2)N=C(Nc2nc3ccccc3o2)N1 | < 1 µg/mL
87 | CN1CCC(N(Cc2cccs2)c2ccccc2)CC1 | > 42 µg/mL
88 | COC(=O)c1ccc(Nc2nc(-c3ccncc3)nc3ccccc23)cc1OC | < 1 µg/mL
89 | COc1cccc(-c2cn3c(n2)sc2cc(C(=O)NCCc4ccc(OC)c(OC)c4)ccc23)c1 | < 1 µg/mL
90 | CCCCCOc1ccccc1/C(=C\SC)n1ccnc1 | < 1 µg/mL
91 | O=C(c1nc(-c2cccnc2)c2ccccn12)N1CCOCC1 | 45.2 µg/mL (≈ 147 µM)
92 | O=C(Cc1ccc(Cl)c(Cl)c1)Nc1ccc([S+](=O)([O-])Nc2ccccn2)cc1 | < 1 µg/mL
93 | O=C(Nc1nc(-c2ccc(F)cc2)cs1)c1ccncc1NS(=O)(=O)c1ccc(F)cc1 | 30.2 µg/mL (≈ 63.9 µM)
94 | C[C@@H](NC(=O)c1ncnc(N)c1Cl)c1ncc(C(=O)Nc2cc(C(F)(F)F)c(Cl)cn2)s1 | > 75 µg/mL
95 | O=C1NCc2cc(-c3cc4c(ccn4Cc4ccncc4)c(N4CCOCC4)n3)ccc21 | > 94 µg/mL
